Source: patent US9999619B2, “Piperidin-4-yl azetidine derivatives as JAK1 inhibitors” (Incyte Corporation, priority 2010, dated 2018)
pIC50: −log10 of the molar value.

What was measured:
Type in all cases: biochemical
Jak2 (a.a. 828-1132) = Jak2 (a.a. 828-1132) (Homo sapiens (Human), UniProt O60674); experiment: In vitro JAK kinase assay (HTRF, phosphorylation of a biotinylated peptide), JAK2; settings: measured at 1 mM ATP
Method in brief: (§1)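 Phosphorylation of a biotinylated peptide by purified His-tagged JAK catalytic domains (insect-cell baculovirus expression) ran 1 hr at room temperature. After stopping with EDTA, Eu-Py20 and SA-APC were bound for 40 minutes and HTRF measured.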

[1] = target: human JAK1 (a.a. 837-1142); experiment: In vitro JAK kinase assay (HTRF, phosphorylation of a biotinylated peptide), JAK1; settings: ratio of JAK2 IC50 to JAK1 IC50, measured at 1 mM ATP
Method in brief: as §1

[2] = target: human JAK1 (a.a. 837-1142) (Homo sapiens, UniProt P23458); experiment: as above; settings: measured at 1 mM ATP
Method in brief: as §1

Jak2 (a.a. 828-1132), sequence (O60674 828-1132): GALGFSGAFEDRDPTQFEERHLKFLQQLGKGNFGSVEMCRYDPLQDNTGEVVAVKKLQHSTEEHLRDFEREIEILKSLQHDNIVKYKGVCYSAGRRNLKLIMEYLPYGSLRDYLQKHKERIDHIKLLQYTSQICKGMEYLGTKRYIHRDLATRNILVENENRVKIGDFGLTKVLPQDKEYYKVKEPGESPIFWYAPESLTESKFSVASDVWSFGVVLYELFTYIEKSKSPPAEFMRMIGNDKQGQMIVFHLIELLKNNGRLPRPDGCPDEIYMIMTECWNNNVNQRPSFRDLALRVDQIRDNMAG

pIC50 (Jak2 (a.a. 828-1132))	IC50 Ratio JAK2/JAK1 [1]	pIC50 [2]	Compound
7.00 to 7.30	14.8	≥ 8.30	N#CCC1(n2cc(-c3ncnc4[nH]ccc34)cn2)CN(C2CCN(C(=O)Nc3ccccc3C(F)(F)F)CC2)C1 [Example 157, 4-{3-(cyanomethyl)-3-[4-(7H-pyrrolo[2,3-d]pyrimidin-4-yl)-1H-pyrazol-1-yl]azetidin-1-yl}-N-[2-(trifluoromethyl)phenyl]piperidine-1-carboxamide]
7.30 to 8.00	12.0	≥ 8.30	N#CCC1(n2cc(-c3ncnc4[nH]ccc34)cn2)CN(C2CCN(C(=O)Nc3ccccc3OC(F)(F)F)CC2)C1 [Example 158, 4-{3-(cyanomethyl)-3-[4-(7H-pyrrolo[2,3-d]pyrimidin-4-yl)-1H-pyrazol-1-yl]azetidin-1-yl}-N-[2-(trifluoromethoxy)phenyl]piperidine-1-carboxamide]
7.30 to 8.00	15.0	≥ 8.30	N#CCC1(n2cc(-c3ncnc4[nH]ccc34)cn2)CN(C2CCN(C(=O)Nc3cscc3Br)CC2)C1 [Example 159, N-(4-bromo-3-thienyl)-4-{3-(cyanomethyl)-3-[4-(7H-pyrrolo[2,3-d]pyrimidin-4-yl)-1H-pyrazol-1-yl]azetidin-1-yl}piperidine-1-carboxamide]
7.30 to 8.00	12.1	≥ 8.30	N#CCC1(n2cc(-c3ncnc4[nH]ccc34)cn2)CN(C2CCN(C(=O)Nc3c(Cl)cccc3Cl)CC2)C1 [Example 160, 4-{3-(cyanomethyl)-3-[4-(7H-pyrrolo[2,3-d]pyrimidin-4-yl)-1H-pyrazol-1-yl]azetidin-1-yl}-N-(2,6-dichlorophenyl)piperidine-1-carboxamide]
7.30 to 8.00	12.1	≥ 8.30	Cc1cccc(Cl)c1NC(=O)N1CCC(N2CC(CC#N)(n3cc(-c4ncnc5[nH]ccc45)cn3)C2)CC1 [Example 161, N-(2-chloro-6-methylphenyl)-4-{3-(cyanomethyl)-3-[4-(7H-pyrrolo[2,3-d]pyrimidin-4-yl)-1H-pyrazol-1-yl]azetidin-1-yl}piperidine-1-carboxamide]
7.30 to 8.00	13.6	≥ 8.30	N#CCC1(n2cc(-c3ncnc4[nH]ccc34)cn2)CN(C2CCN(C(=O)Nc3ccc(F)cc3Cl)CC2)C1 [Example 162, N-(2-chloro-4-fluorophenyl)-4-{3-(cyanomethyl)-3-[4-(7H-pyrrolo[2,3-d]pyrimidin-4-yl)-1H-pyrazol-1-yl]azetidin-1-yl}piperidine-1-carboxamide]
7.30 to 8.00	12.0	≥ 8.30	N#CCC1(n2cc(-c3ncnc4[nH]ccc34)cn2)CN(C2CCN(C(=O)Nc3ccccc3Cl)CC2)C1 [Example 163, N-(2-chlorophenyl)-4-{3-(cyanomethyl)-3-[4-(7H-pyrrolo[2,3-d]pyrimidin-4-yl)-1H-pyrazol-1-yl]azetidin-1-yl}piperidine-1-carboxamide]
7.30 to 8.00	13.3	≥ 8.30	N#CCC1(n2cc(-c3ncnc4[nH]ccc34)cn2)CN(C2CCN(C(=O)Nc3ccccc3OC(F)F)CC2)C1 [Example 164, 4-{3-(cyanomethyl)-3-[4-(7H-pyrrolo[2,3-d]pyrimidin-4-yl)-1H-pyrazol-1-yl]azetidin-1-yl}-N-[2-(difluoromethoxy)phenyl]piperidine-1-carboxamide]
7.00 to 7.30	10.4	7.70 to 8.30	N#CCC1(n2cc(-c3ncnc4[nH]ccc34)cn2)CN(C2CCN(C(=O)Nc3cnccc3C(F)(F)F)CC2)C1 [Example 165]
≥ 8.00	5.5	≥ 8.30	N#CCC1(n2cc(-c3ncnc4[nH]ccc34)cn2)CN(C2CCN(C(=O)Nc3cccc(C(F)(F)F)c3)CC2)C1 [Example 166, 4-{3-(cyanomethyl)-3-[4-(7H-pyrrolo[2,3-d]pyrimidin-4-yl)-1H-pyrazol-1-yl]azetidin-1-yl}-N-[3-(trifluoromethyl)phenyl]piperidine-1-carboxamide]
≥ 8.00	2.0	≥ 8.30	N#CCC1(n2cc(-c3ncnc4[nH]ccc34)cn2)CN(C2CCN(C(=O)Nc3ccc(C(F)(F)F)cc3)CC2)C1 [Example 167, 4-{3-(cyanomethyl)-3-[4-(7H-pyrrolo[2,3-d]pyrimidin-4-yl)-1H-pyrazol-1-yl]azetidin-1-yl}-N-[4-(trifluoromethyl)phenyl]piperidine-1-carboxamide]
≥ 8.00	2.6	≥ 8.30	Cc1ccc(Cl)cc1NC(=O)N1CCC(N2CC(CC#N)(n3cc(-c4ncnc5[nH]ccc45)cn3)C2)CC1 [Example 168, N-(5-chloro-2-methylphenyl)-4-{3-(cyanomethyl)-3-[4-(7H-pyrrolo[2,3-d]pyrimidin-4-yl)-1H-pyrazol-1-yl]azetidin-1-yl}piperidine-1-carboxamide]
7.30 to 8.00	5.5	≥ 8.30	N#CCC1(n2cc(-c3ncnc4[nH]ccc34)cn2)CN(C2CCN(C(=O)Nc3ccccc3F)CC2)C1 [Example 169, 4-{3-(cyanomethyl)-3-[4-(7H-pyrrolo[2,3-d]pyrimidin-4-yl)-1H-pyrazol-1-yl]azetidin-1-yl}-N-(2-fluorophenyl)piperidine-1-carboxamide]
7.30 to 8.00	6.9	≥ 8.30	N#CCC1(n2cc(-c3ncnc4[nH]ccc34)cn2)CN(C2CCN(C(=O)Nc3cccc(C(F)(F)F)c3F)CC2)C1 [Example 170, 4-{3-(cyanomethyl)-3-[4-(7H-pyrrolo[2,3-d]pyrimidin-4-yl)-1H-pyrazol-1-yl]azetidin-1-yl}-N-[2-fluoro-3-(trifluoromethyl)phenyl]piperidine-1-carboxamide]
7.30 to 8.00	5.7	7.70 to 8.30	N#CCC1(n2cc(-c3ncnc4[nH]ccc34)cn2)CN(C2CCN(C(=O)Nc3cc(F)cc(F)c3F)CC2)C1 [Example 173, 4-{3-(cyanomethyl)-3-[4-(7H-pyrrolo[2,3-d]pyrimidin-4-yl)-1H-pyrazol-1-yl]azetidin-1-yl}-N-(2,3,5-trifluorophenyl)piperidine-1-carboxamide]
≥ 8.00	7.1	≥ 8.30	N#CCC1(n2cc(-c3ncnc4[nH]ccc34)cn2)CN(C2CCN(C(=O)Nc3cc(F)ccc3F)CC2)C1 [Example 174, 4-{3-(cyanomethyl)-3-[4-(7H-pyrrolo[2,3-d]pyrimidin-4-yl)-1H-pyrazol-1-yl]azetidin-1-yl}-N-(2,5-difluorophenyl)piperidine-1-carboxamide]
≥ 8.00	3.6	≥ 8.30	N#CCC1(n2cc(-c3ncnc4[nH]ccc34)cn2)CN(C2CCN(C(=O)Nc3cc(F)cc(F)c3)CC2)C1 [Example 175, 4-{3-(cyanomethyl)-3-[4-(7H-pyrrolo[2,3-d]pyrimidin-4-yl)-1H-pyrazol-1-yl]azetidin-1-yl}-N-(3,5-difluorophenyl)piperidine-1-carboxamide]
≥ 8.00	8.5	≥ 8.30	N#CCC1(n2cc(-c3ncnc4[nH]ccc34)cn2)CN(C2CCN(C(=O)Nc3cccc(Cl)c3F)CC2)C1 [Example 177, N-(3-chloro-2-fluorophenyl)-4-{3-(cyanomethyl)-3-[4-(7H-pyrrolo[2,3-d]pyrimidin-4-yl)-1H-pyrazol-1-yl]azetidin-1-yl}piperidine-1-carboxamide]
≥ 8.00	6.5	≥ 8.30	N#CCC1(n2cc(-c3ncnc4[nH]ccc34)cn2)CN(C2CCN(C(=O)Nc3ccc(Cl)cc3F)CC2)C1 [Example 178, N-(4-chloro-2-fluorophenyl)-4-{3-(cyanomethyl)-3-[4-(7H-pyrrolo[2,3-d]pyrimidin-4-yl)-1H-pyrazol-1-yl]azetidin-1-yl}piperidine-1-carboxamide]
7.00 to 7.30	3.8	7.70 to 8.30	N#CCC1(n2cc(-c3ncnc4[nH]ccc34)cn2)CN(C2CCN(C(=O)Nc3ccsc3)CC2)C1 [Example 179, 4-{3-(cyanomethyl)-3-[4-(7H-pyrrolo[2,3-d]pyrimidin-4-yl)-1H-pyrazol-1-yl]azetidin-1-yl}-N-3-thienylpiperidine-1-carboxamide]
7.30 to 8.00	4.0	≥ 8.30	COc1ccccc1NC(=O)N1CCC(N2CC(CC#N)(n3cc(-c4ncnc5[nH]ccc45)cn3)C2)CC1 [Example 180, 4-{3-(cyanomethyl)-3-[4-(7H-pyrrolo[2,3-d]pyrimidin-4-yl)-1H-pyrazol-1-yl]azetidin-1-yl}-N-(2-methoxyphenyl)piperidine-1-carboxamide]
7.30 to 8.00	4.9	≥ 8.30	COc1cccc(NC(=O)N2CCC(N3CC(CC#N)(n4cc(-c5ncnc6[nH]ccc56)cn4)C3)CC2)c1 [Example 181, 4-{3-(cyanomethyl)-3-[4-(7H-pyrrolo[2,3-d]pyrimidin-4-yl)-1H-pyrazol-1-yl]azetidin-1-yl}-N-(3-methoxyphenyl)piperidine-1-carboxamide]

Compound	pIC50 (Jak2 (a.a. 828-1132))	IC50 Ratio JAK2/JAK1 [1]	pIC50 [2]
N#CCC1(n2cc(-c3ncnc4[nH]ccc34)cn2)CN(C2CCN(C(=O)Nc3ccc(F)cc3F)CC2)C1 [Example 171, 4-{3-(cyanomethyl)-3-[4-(7H-pyrrolo[2,3-d]pyrimidin-4-yl)-1H-pyrazol-1-yl]azetidin-1-yl}-N-(2,4-difluorophenyl)piperidine-1-carboxamide]	7.30 to 8.00	7.5	≥ 8.30
N#CCC1(n2cc(-c3ncnc4[nH]ccc34)cn2)CN(C2CCN(C(=O)Nc3ccc(F)c(F)c3)CC2)C1 [Example 176, 4-{3-(cyanomethyl)-3-[4-(7H-pyrrolo[2,3-d]pyrimidin-4-yl)-1H-pyrazol-1-yl]azetidin-1-yl}-N-(3,4-difluorophenyl)piperidine-1-carboxamide]	≥ 8.00	5.1	≥ 8.30
